Entries after “also recorded” stand apart in the source; their conditions may differ.
How the values were obtained:
Type in all cases: cell-based, human
UPCI:SCC104 [1] = assay: Cell cycle analysis by flow cytometry; settings: 1 mM or 5 mM caffeine 1 h prior to 5 Gy IR
Method: Cell Cycle Analysis by Flow Cytometry. […] These cells were washed with phosphate-buffered saline (PBS), and fixed with 70% ethanol. The cells were then treated with 80 μg/ml RNase A and 50 μg/ml propidium iodide (Invitrogen-Molecular Probes, Carlsbad, Calif.) for 45 min at 37° C. The stained cells were analyzed using a Coulter Epics XL Flow Cytometer in the UPCI Flow Cytometry Facility. SiRNA Transfection. ATR or CHEK1 inhibitions were carried out using the respective siRNAs for a specific knockout. RNA interference of ATR and CHEK1 was performed using Smartpool ATR and CHEK1 duplexes respectively, obtained from Dharmacon (Lafayette, Colo.). Nonspecific (scrambled) control duplexes (Dharmacon) were used for nonspecific siRNA treatment. The duplexes were reconstituted in 1×DNA-free RNA re-suspension buffer provided by Dharmacon and aliquoted according to the manufacturer's instructions. For transfection, the OSCC cell lines were seeded in 60 mm dishes or T25 flasks and transfected with siRNA duplexes using Lipofectamine 2000 (Invitrogen) according to the manufacturer's instructions. The individual siRNA duplex sequences are enumerated in Appendix B. The final working siRNA concentration achieved was between 90-100 nM. […]

UPCI:SCC084 = assay: Clonogenic cell survival assay
Method: (§1) Clonogenic Cell Survival Assay. To assess cell survival in response to ionizing radiation, clonogenic survival assays were performed. Two thousand cells were seeded in 60 mm Petri dishes and allowed to adhere overnight. […] The culture medium was replaced at the end of 7 days. Untreated cells cultured in parallel were used to determine relative plating efficiency. After 12 days, the cells were fixed with 70% ethyl alcohol and stained with Giemsa (Sigma, St. Louis, Mo.) and the number of colonies was assessed. A colony was defined as a cluster of ≧50 cells, having formed from a single cell. All experiments were performed in triplicate, and the error reported as one standard deviation from the mean.

UPCI:SCC104 [2] = assay: Clonogenic cell survival assay
Method: as §1
SiRNA Transfection. ATR or CHEK1 inhibitions were carried out using the respective siRNAs for a specific knockout. RNA interference of ATR and CHEK1 was performed using Smartpool ATR and CHEK1 duplexes respectively, obtained from Dharmacon (Lafayette, Colo.). Nonspecific (scrambled) control duplexes (Dharmacon) were used for nonspecific siRNA treatment. The duplexes were reconstituted in 1×DNA-free RNA re-suspension buffer provided by Dharmacon and aliquoted according to the manufacturer's instructions. For transfection, the OSCC cell lines were seeded in 60 mm dishes or T25 flasks and transfected with siRNA duplexes using Lipofectamine 2000 (Invitrogen) according to the manufacturer's instructions. The individual siRNA duplex sequences are enumerated in Appendix B. The final working siRNA concentration achieved was between 90-100 nM. We used cells treated with no vector (untreated), empty vector (mock-treated), cells transfected with a nonspecific siRNA, and a specific ATR or CHEK1 siRNA for all of our experiments. At the end of 48 h post-transfection, appropriate treatments (ionizing radiation or aphidicolin treatment) were carried out as described earlier.

OSCC = assay: Cell cycle analysis by flow cytometry after caffeine and irradiation; settings: following irradiation
Method: Cell Cycle Analysis by Flow Cytometry. […] These cells were washed with phosphate-buffered saline (PBS), and fixed with 70% ethanol. The cells were then treated with 80 μg/ml RNase A and 50 μg/ml propidium iodide (Invitrogen-Molecular Probes, Carlsbad, Calif.) for 45 min at 37° C. The stained cells were analyzed using a Coulter Epics XL Flow Cytometer in the UPCI Flow Cytometry Facility.

[3] = different doses of caffeine, compared to UPCI:SCC066, 105 and control NHOK
[4] = cell lines with an upregulated ATR-CHEK1 pathway including GM09607 (AT cells)

Cn1c(=O)c2c(ncn2C)n(C)c1=O [caffeine]
G2M accumulation (UPCI:SCC104 [1]): dose dependent reduction | sub G0 peak (dead cells) (UPCI:SCC104 [1]): increase | reduction in colony survival (UPCI:SCC084; 0.5 mM caffeine, UPCI:SCC084, absence of any DNA damaging agents): > 50% | colony survival (UPCI:SCC084; 1 mM caffeine, UPCI:SCC084): complete absence of survival; also recorded: Complete inhibition of colony formation | sensitivity to caffeine (clonogenic cell survival) (UPCI:SCC084; [3]): increased sensitivity | reduction in colony survival (UPCI:SCC104 [2]; 0.5 mM caffeine, UPCI:SCC104, absence of any DNA damaging agents): > 50% | colony survival (UPCI:SCC104 [2]; 1 mM caffeine, UPCI:SCC104): complete absence of survival | sensitivity to caffeine (clonogenic cell survival) (UPCI:SCC104 [2]; [3]): increased sensitivity | sensitivity to caffeine (cell cycle profile) (OSCC; cell lines with an intact G1 checkpoint and normal ATR-CHEK1 expression): did not demonstrate any sensitivity | accumulation of cells in the S and G2M phases (OSCC; [4]): clearly reduced | sub-G0 population (dead cells) (OSCC; [4]): increased

From patent US9080216B2, “Genetic changes in ATM and ATR/CHEK1 as prognostic indicators in cancer” (University of Pittsburgh-of the CommonWealth System of …, priority 2007, dated 2015)
